Results taken from US20250283885A1, “MODULAR BIOSENSOR FOR RECEPTOR TYROSINE KINASE ACTIVITY” (The Trustees of Princeton University, priority 2024, published 2025).

Legend:
[1] = tested on: ErbB2; assay: ErbB2 pYtag (with EGFR-Citrine) in NIH 3T3 cells: clearance of cytosolic ZtSH2; format: cell-based; conditions: NIH 3T3, required ITAMs on ErbB2 and co-expression of EGFR
Protocol: One advantage of the pYtag approach is its modularity: ITAMs can in principle be fused to the C-termini of many different RTKs and recruit ZtSH2 upon stimulation. Therefore, it was tested whether pYtags could be adapted to monitor the activity of receptors other than EGFR. pYtag biosensors were designed for two additional RTKs: 1) ErbB2, a ligandless member of the ErbB family that signals by heterodimerizing with ligand-bound EGFR; and 2) fibroblast growth factor receptor 1 (FGFR1), a non-ErbB family RTK. ErbB2 is a particularly challenging RTK to study because it can only be activated in conjunction with an additional RTK (e.g., EGFR), so Grb2-based biosensors would be unable to distinguish between the activity of EGFR and ErbB2.
Starting from NIH 3T3 cells expressing iRFP-ZtSH2, cell lines expressing either an ErbB2 pYtag (ErbB2-CD3ε-FusionRed), an FGFR1 pYtag (FGFR1-CD3ε-FusionRed), or ITAM-less variants of each were generated. For the ErbB2 case, cells with EGFR-Citrine were further transduced to express both required components of a functional receptor heterodimer (see FIG. 3, and FIGS. 4A-4B).
The pYtag approach is indeed modular, and this strategy can be readily adapted for monitoring the activation of distinct RTKs in individual cells.

[2] = tested on: EGFR and Erk signaling; assay: EGFR pYtag and ErkKTR in MCF10A clusters on soft substrata; format: cell-based, human
Protocol: At the tissue scale, the spatiotemporal distribution of RTK signaling can also be regulated by several processes including paracrine signaling, morphogen gradients, and the mechanical properties of the local microenvironment. It was therefore asked whether pYtags could be used to monitor RTK signaling in multicellular contexts.
To prepare polyacrylamide substrata, 1.5-mm-thick glass coverslips were pre-treated with glutaraldehyde. First, coverslips were treated with 0.1 N NaOH for 30 min, followed by rinsing with deionized water and air drying. Coverslips were then treated with 2% aminopropyltrimethoxysilane (Sigma Aldrich) in acetone for 30 min, washed three times with acetone, and left to air dry. Coverslips were treated with 0.5% glutaraldehyde (Sigma Aldrich) in PBS for 30 min, washed with deionized water, and left to air dry. Custom glass-bottom dishes were prepared by replacing the bottoms of 35 mm TCPS dishes with glutaraldehyde-treated coverslips, which were sealed using PDMS (Sigma Aldrich).
To investigate the dynamics of this spatial pattern, EGFR signaling was monitored using two live-cell biosensors: EGFR pYtag and a kinase translocation reporter for downstream signaling through Erk (ErkKTR).

[3] = tested on: ErbB2; assay: Multiplexed pYtags in NIH 3T3 cells: ErbB2 reporter (iRFP-ZtSH2; ErbB2-CD3ε-FusionRed); format: cell-based; conditions: 100 ng/mL
Excerpt: Having characterized an orthogonal pair of pYtags, it was recognized that these biosensors could be used to simultaneously monitor the activation of both EGFR and ErbB2. NIH 3T3 cells that co-expressed pYtags for EGFR (Clover-VISH2; EGFR-SLP76-BFP) and ErbB2 (iRFP-ZtSH2; ErbB2-CD3ε-FusionRed) were generated. […] VISH2 cleared from the cytosol almost immediately (<30 sec), indicating rapid phosphorylation of the EGFR C-terminal tail. […] Although the absolute magnitude of tSH2 biosensor clearance varied between cell lines (likely due to differences in affinity and expression level), the dynamics of EGFR and ErbB2 activation were highly reproducible in all cases, irrespective of the cell line or pYtag.

[4] = tested on: EGFR R84K or A265V; assay: pYtag response of GBM-associated mutant EGFRs in NIH 3T3 cells; format: cell-based, mouse; conditions: 20 ng/ml, NIH 3T3 cells expressing R84K or A265V EGFR
Excerpt: To validate the prediction of our model, the dimerization affinity of EGFR was experimentally altered and signaling responses were monitored using pYtags. One can turn to glioblastoma multiform (GBM)-associated mutations in the extracellular domain of EGFR (R84K and A265V point mutations), which were previously shown to increase the dimerization affinity of EREG- and EPGN-bound receptors. These GBM-associated mutations were first modeled in EGFR by decreasing β and γ by 6-fold and 650-fold, respectively. […] NIH 3T3 cell lines expressing pYtag biosensors of EGFR variants harboring either the R84K or A265V mutation were then generated.
The data reveal ligand-dependent EGFR signaling dynamics at unprecedented temporal resolution and point to the dimerization affinity of ligand-bound receptors as a key parameter that governs these responses. More broadly, combining pYtags with mathematical modeling can shed mechanistic insight into the signaling dynamics of RTKs.

[5] = target: EGFR (Homo sapiens, UniProt P00533); assay: EGFR pYtag live-cell imaging: clearance of cytosolic ZtSH2 in NIH 3T3 cells
Excerpt: Six ITAMs from the CD3γ, CD3δ, CD3ε, and CD3ζ chains of the TCR. In each case, three identical repeats of the ITAM were fused to the C-terminal tail of EGFR followed by the FusionRed fluorescent protein (EGFR-ITAM-FusionRed). Each receptor was the co-expressed with an iRFP-labeled ZtSH2 (iRFP-ZtSH2) in NIH 3T3 fibroblasts, which express negligible levels of EGFR. […] Because ZtSH2 can in principle be recruited rapidly on and off the membrane and may localize to distinct subcellular compartments, it was reasoned that pYtags could be used to monitor the subcellular activity of an RTK in individual cells over time.

Substance | ZtSH2 response of ErbB2 pYtag-expressing cells [1] | Delay in EGFR and Erk signaling between periphery and interior of clusters [2] [min] | Delay of Erk responses behind EGFR responses [2] [min] | Time of ZtSH2 clearance from the cytosol (ErbB2 phosphorylation) [3] [min] | pYtag signaling response of GBM-associated mutant EGFR [4] | pYtag signaling response of WT EGFR ([5]; 20 ng/ml, NIH 3T3 cells expressing WT EGFR) | EGFR activity dynamics after low-affinity ligand ([5]; varying doses, NIH 3T3 EGFR pYtag)
EGF: epidermal growth factor, high-affinity EGFR ligand (NSDSECPLSHDGYCLHDGVCMYIEALDKYACNCVVGYIGERCQYRDLKWWELR; Epidermal growth factor; UniProt P01133 971-1023, looked up) | clearance of ZtSH2 from the cytosol | 2 to 4 | ~4 | ~3 | – | – | –
EREG: epiregulin, low-affinity EGFR ligand | – | – | – | – | stronger response that gradually increased over time | transient peak of activation and rapid plateau | rapid rise in EGFR activity followed by a plateau within minutes
